Laboratory results from patent EP0026409A1, “Combinations of active ingredients, pharmaceutical preparations, as well as their preparation” (F. HOFFMANN-LA ROCHE & CO. Aktiengesellschaft, priority 1979, dated 1981).
In brackets after ≈: the same amount, converted by molar mass. Where two headings read alike, the source gives them in different places. Each block holds one compound with its values, some of them ahead of it.

How the values were obtained:
Assay in all cases: In vitro activity: M.I.C. on nutrient agar plates, surface inoculation, 24 h at 37°C
Format in all cases: cell-based
[1] = test system: Staphylococcus aureus; conditions: S. aureus, Peptid or Antibiotikum alone; for MIC: Staphylococcus aureus, 24 h
Description: (§1) Es wurden konzentrierte Lösungen von Gemischen der Verbindungen der Formel I und dem Antibiotikum in den gewünschten Gewichtsverhältnissen hergestellt, die dann beliebig verdünnt wurden. Aliquote Teile der verdünnten Lösungen wurden mit einem geeigneten Nähragar in Petrischalen gemischt. Zum Vergleich wurden ähnliche Agar-Schalen hergestellt, die ausser dem Nährmedium die Verbindung I bzw. das Antibiotikum alleine enthielten. Nach Oberflächeninokulation mit den Mikroorganismen wurde 24 Stunden bei 37°C aufbewahrt und dann die minimale Hemmkonzentration (M.I.C.) bestimmt und die F.I.C.-Indexe berechnet. Die Ergebnisse unter Verwendung repräsentativer Verbindungen der Formel I, nämlich (1R)-1-(N-Sarcosyl-L-norvalyl-L-norvalylamino)-ethylphosphonsäure, und (1R)-1-(N-Methyl-L-leucyl-L-norvalyl-L-norvalylamino)-ethylphosphonsäure und repräsentativer Antibiotika, nämlich Cephalexin und D-Cycloserin, sind in den folgenden Tabellen I-III zusammengestellt..

[2] = test system: Streptococcus faecalis; conditions: S. faecalis, Peptid or Antibiotikum alone
Description: as §1

[3] = test system: Streptococcus pyogenes; conditions: S. pyogenes, Peptid or Antibiotikum alone
Description: as §1

[4] = test system: Escherichia coli; conditions: E. coli, Peptid or Antibiotikum alone
Description: as §1

[5] = test system: Proteus mirabilis; conditions: P. mirabilis, Peptid or Antibiotikum alone
Description: as §1

[6] = test system: Streptococcus agalactiae; conditions: S.agalactiae, Peptid or Antibiotikum alone
Description: as §1

[7] = test system: Streptococcus dysgalactiae; conditions: S.dysgalactiae, Peptid or Antibiotikum alone
Description: as §1

SMILES: CCC[C@H](NC(=O)[C@H](CC(C)C)NC)C(=O)N[C@@H](CCC)C(=O)N[C@@H](C)P(=O)(O)O [(1R)-1-(N-Methyl-L-leucyl-L-norvalyl-L-norvalylamino)-ethylphosphonsäure]
M.I.C. [1]: >64 µg/mL | M.I.C. [2]: 2 µg/mL | M.I.C. [3]: >64 µg/mL

SMILES: CCC[C@H](NC(=O)CNC)C(=O)N[C@@H](CCC)C(=O)N[C@@H](C)P(=O)(O)O [(1R)-1-(N-Sarcosyl-L-norvalyl-L-norvalylamino)-ethylphosphonsäure]
M.I.C. [4]: 2 µg/mL | M.I.C. [5]: >128 µg/mL | M.I.C. [1]: >128 µg/mL | M.I.C. [6]: 45.2 µg/mL | M.I.C. [7]: 2.8 µg/mL | M.I.C. [2]: 90.5 µg/mL | M.I.C. [3]: 90.5 µg/mL

SMILES: CC1=C(C(=O)O)N2C(=O)[C@@H](NC(=O)[C@H](N)c3ccccc3)[C@H]2SC1 [Cephalexin]
MIC ([5]; Proteus mirabilis, 24 h): 22.6 µg/mL (≈ 65.1 µM) | M.I.C. [1]: 64 µg/mL | MIC [1]: 45.2 µg/mL (≈ 130 µM) | MIC ([2]; Enterococcus faecalis, 24 h): 128 µg/mL (≈ 368 µM) | M.I.C. [3]: 8 µg/mL | MIC ([3]; Streptococcus pyogenes, 24 h): 11.3 µg/mL (≈ 32.5 µM)

MIC ([4]; Escherichia coli, 24 h): 32 µg/mL (≈ 313 µM) | MIC ([1]; read-out: M.I.C.): 16 µg/mL (≈ 157 µM) | MIC ([6]; Streptococcus agalactiae, 24 h): 90.5 µg/mL (≈ 886 µM) | MIC ([7]; Streptococcus dysgalactiae, 24 h): 128 µg/mL (≈ 1250 µM)
SMILES: N[C@@H]1CONC1=O [D-Cycloserin]
